In ChEMBL document CHEMBL1201862, “PubChem BioAssay data set” (2004):
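Test compounds were applied to cells in 96-well plates for 48 hours at 5 doses. GI50 is the concentration that inhibits growth by half.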 Calls of active or inactive are those of the source. Cut-off read from the data, not from the text of the source: active = GI50 up to about 1.1 µM and inactive = higher.

Key:
Test in all cases: growth of human tumour cells (NCI), 48 h
SF-539 = system: SF-539
UACC-257 = system: UACC-257
KM12 = system: KM12
COLO 205 = system: COLO 205
HCT-116 = system: HCT-116
SR = system: SR
PC-3 = system: PC-3
MDA-MB-231 = system: MDA-MB-231
NCI/ADR-RES = system: NCI/ADR-RES
Hs-578T = system: Hs-578T
SNB-19 = system: SNB-19
OVCAR-8 = system: OVCAR-8
SW-620 = system: SW-620
NCI-H460 = system: NCI-H460
786-0 = system: 786-0
OVCAR-3 = system: OVCAR-3
CCRF-CEM = system: CCRF-CEM
Malme-3M = system: Malme-3M
EKVX = system: EKVX
SF-295 = system: SF-295
NCI-H23 = system: NCI-H23
MOLT-4 = system: MOLT-4
NCI-H226 = system: NCI-H226
HL-60 = system: HL-60
CAKI-1 = system: CAKI-1
NCI-H522 = system: NCI-H522
HT-29 = system: HT-29
OVCAR-4 = system: OVCAR-4
HOP-92 = system: HOP-92
A549 = system: A549
MCF7 = system: MCF7
IGROV-1 = system: IGROV-1
UO-31 = system: UO-31
HCT-15 = system: HCT-15
HOP-62 = system: HOP-62
MDA-N = system: MDA-N
SK-MEL-2 = system: SK-MEL-2
OVCAR-5 = system: OVCAR-5
SN12C = system: SN12C
M14 = system: M14
A498 = system: A498
SNB-75 = system: SNB-75
SK-MEL-28 = system: SK-MEL-28
RPMI-8226 = system: RPMI-8226
BT-549 = system: BT-549
K562 = system: K562
SK-MEL-5 = system: SK-MEL-5
LOX IMVI = system: LOX IMVI
SF-268 = system: SF-268
DU-145 = system: DU-145
ACHN = system: ACHN
U-251 = system: U-251
TK-10 = system: TK-10
RXF 393 = system: RXF 393
MDA-MB-435 = system: MDA-MB-435
HCC 2998 = system: HCC 2998
UACC-62 = system: UACC-62
SK-OV-3 = system: SK-OV-3

SMILES: N#Cc1c(-c2ccc(Cl)cc2)c2c(n(C3OC(CO)C(O)C(O)C3O)c1=S)CCCC2 (centres undefined)
- GI50 (SF-539): > 100 µM (inactive)
- GI50 (UACC-257): > 100 µM (inactive)
- GI50 (KM12): 50 µM (inactive)
- GI50 (COLO 205): 38.3 µM (inactive)
- GI50 (HCT-116): 53.1 µM (inactive)
- GI50 (SR): 39.2 µM (inactive)
- GI50 (PC-3): 56.2 µM (inactive)
- GI50 (MDA-MB-231): 53.6 µM (inactive)
- GI50 (NCI/ADR-RES): > 100 µM (inactive)
- GI50 (Hs-578T): > 100 µM (inactive)
- GI50 (SNB-19): 39.1 µM (inactive)
- GI50 (OVCAR-8): 80.4 µM (inactive)
- GI50 (SW-620): 74 µM (inactive)
- GI50 (NCI-H460): 54.2 µM (inactive)
- GI50 (786-0): 60.8 µM (inactive)
- GI50 (OVCAR-3): 69.8 µM (inactive)
- GI50 (CCRF-CEM): 49.3 µM (inactive)
- GI50 (Malme-3M): 50.8 µM (inactive)
- GI50 (EKVX): 56.1 µM (inactive)
- GI50 (SF-295): > 100 µM (inactive)
- GI50 (NCI-H23): > 100 µM (inactive)
- GI50 (MOLT-4): 26.1 µM (inactive)
- GI50 (NCI-H226): > 100 µM (inactive)
- GI50 (HL-60): 24.7 µM (inactive)
- GI50 (CAKI-1): > 100 µM (inactive)
- GI50 (NCI-H522): 63.2 µM (inactive)
- GI50 (HT-29): 73.3 µM (inactive)
- GI50 (OVCAR-4): 82.2 µM (inactive)
- GI50 (HOP-92): 46 µM (inactive)
- GI50 (A549): > 100 µM (inactive)
- GI50 (MCF7): 55.2 µM (inactive)
- GI50 (IGROV-1): 59.2 µM (inactive)
- GI50 (UO-31): 74.5 µM (inactive)
- GI50 (HCT-15): > 100 µM
- GI50 (HOP-62): 85.3 µM (inactive)
- GI50 (MDA-N): 44.2 µM (inactive)
- GI50 (SK-MEL-2): > 100 µM (inactive)
- GI50 (OVCAR-5): > 100 µM (inactive)
- GI50 (SN12C): 68.5 µM (inactive)
- GI50 (M14): > 100 µM (inactive)
- GI50 (A498): 49.3 µM (inactive)
- GI50 (SNB-75): > 100 µM (inactive)
- GI50 (SK-MEL-28): 78.7 µM (inactive)
- GI50 (RPMI-8226): 44.3 µM (inactive)
- GI50 (BT-549): 25.5 µM (inactive)
- GI50 (K562): 37.8 µM (inactive)
- GI50 (SK-MEL-5): 18.4 µM (inactive)
- GI50 (LOX IMVI): 47.2 µM (inactive)
- GI50 (SF-268): > 100 µM (inactive)
- GI50 (DU-145): > 100 µM (inactive)
- GI50 (ACHN): 79.8 µM (inactive)
- GI50 (U-251): 64.9 µM (inactive)
- GI50 (TK-10): 72.4 µM (inactive)
- GI50 (RXF 393): > 10 µM (inactive)
- GI50 (MDA-MB-435): 54.8 µM (inactive)
- GI50 (HCC 2998): > 100 µM (inactive)

SMILES: CC(=O)C1C(=O)C(=O)N(c2ccc(Br)cc2)C1=O (centres undefined)
- GI50 (SF-539): > 100 µM (inactive)
- GI50 (UACC-257): > 100 µM (inactive)
- GI50 (KM12): > 100 µM (inactive)
- GI50 (COLO 205): > 100 µM (inactive)
- GI50 (HCT-116): > 100 µM (inactive)
- GI50 (UACC-62): > 100 µM (inactive)
- GI50 (PC-3): > 100 µM (inactive)
- GI50 (MDA-MB-231): > 100 µM (inactive)
- GI50 (SK-OV-3): > 100 µM (inactive)
- GI50 (NCI/ADR-RES): > 100 µM (inactive)
- GI50 (Hs-578T): > 100 µM (inactive)
- GI50 (SNB-19): > 100 µM (inactive)
- GI50 (OVCAR-8): > 100 µM (inactive)
- GI50 (SW-620): > 100 µM (inactive)
- GI50 (NCI-H460): > 100 µM (inactive)
- GI50 (786-0): > 100 µM (inactive)
- GI50 (OVCAR-3): > 100 µM (inactive)
- GI50 (CCRF-CEM): > 100 µM (inactive)
- GI50 (EKVX): > 100 µM (inactive)
- GI50 (SF-295): > 100 µM (inactive)
- GI50 (NCI-H23): > 100 µM (inactive)
- GI50 (MOLT-4): > 100 µM (inactive)
- GI50 (NCI-H226): > 100 µM (inactive)
- GI50 (HL-60): > 100 µM (inactive)
- GI50 (CAKI-1): > 100 µM (inactive)
- GI50 (NCI-H522): > 100 µM (inactive)
- GI50 (HT-29): > 100 µM (inactive)
- GI50 (OVCAR-4): > 100 µM (inactive)
- GI50 (HOP-92): > 100 µM (inactive)
- GI50 (A549): > 100 µM (inactive)
- GI50 (MCF7): > 100 µM (inactive)
- GI50 (IGROV-1): > 100 µM (inactive)
- GI50 (UO-31): > 100 µM (inactive)
- GI50 (HCT-15): > 100 µM
- GI50 (HOP-62): > 100 µM (inactive)
- GI50 (MDA-N): > 100 µM (inactive)
- GI50 (SK-MEL-2): > 100 µM (inactive)
- GI50 (OVCAR-5): > 100 µM (inactive)
- GI50 (SN12C): > 100 µM (inactive)
- GI50 (M14): > 100 µM (inactive)
- GI50 (SNB-75): > 100 µM (inactive)
- GI50 (SK-MEL-28): > 100 µM (inactive)
- GI50 (BT-549): > 100 µM (inactive)
- GI50 (SK-MEL-5): > 100 µM (inactive)
- GI50 (LOX IMVI): > 100 µM (inactive)
- GI50 (SF-268): > 100 µM (inactive)
- GI50 (DU-145): > 100 µM (inactive)
- GI50 (ACHN): > 100 µM (inactive)
- GI50 (U-251): > 100 µM (inactive)
- GI50 (TK-10): > 100 µM (inactive)
- GI50 (RXF 393): > 100 µM (inactive)
- GI50 (MDA-MB-435): > 100 µM (inactive)
- GI50 (HCC 2998): > 100 µM (inactive)
